15 compounds from US20250127801A1, “BRIDGED TRICYCLIC CARBAMOYLPYRIDONE COMPOUNDS AND USES THEREOF” (priority 2023, published 2025) can be followed below.

Broadly, the pEC50 is the EC50 on a negative log10 scale, so that one unit is a factor of ten. The EC50 is the midpoint of the concentration-response curve.

pEC50: −log10 of the molar value. Where two headings read alike, the source gives them in different places.

Series [1] is described as follows: in vitro. To be noted: human; for CC50 at 5 days: uninfected MT-4 cells.
Series [2] has as its system HIV-1 (IIIB). Briefly: microbe, parasite or virus in culture. The series is classed as cell-based. To be noted: for pEC50: Human immunodeficiency virus 1, MT4, 120 h, HIV-1 (IIIB) replication in MT-4 cells, 5 days incubation, Cell Titer Glo, read-out: MT4 EC50; for EC50: Human immunodeficiency virus 1, IIIB, MT4, 120 h, read-out: MT4 EC50 (nM). A general note: In ATP-based viability assays light output follows the ATP content of the culture.

Take `CCCCCCCCCCCCCC(=O)NCc1ccccc1C(=O)Oc1c2n(cc(C(=O)NCc3ccc(F)cc3F)c1=O)[C@@H]1CN(C2=O)[C@@H](C)CC[C@]12CC(C)=NO2` [Compound 102, (3′S,5S,7′R)-10′-((2,4-difluorobenzyl)carbamoyl)-3,3′-dimethyl-1′,11′-dioxo-1′,4′,5′,11′-tetrahydro-3′H,4H,7′H-spiro[isoxazole-5,6′-[2,7]methanopyrido[1,2-a][1,4]diazonin]-12′-yl 2-(tetradecanamidomethyl)benzoate]: the CC50 at 5 days in series [1] was 31.8 µM.
With `CC1=NO[C@@]2(CC[C@H](C)N3C[C@H]2n2cc(C(=O)NCc4ccc(F)cc4F)c(=O)c(OCOC(=O)O[C@@H]4CCCC[C@@H]4OP(=O)(O)O)c2C3=O)C1` [Compound 50, (((3′S,5S,7′R)-10′-((2,4-difluorobenzyl)carbamoyl)-3,3′-dimethyl-1′,11′-dioxo-1′,4′,5′,11′-tetrahydro-3′H,4H,7′H-spiro[isoxazole-5,6′-[2,7]methanopyrido[1,2-a][1,4]diazonin]-12′-yl)oxy)methyl ((1R,2S)-2-(phosphonooxy)cyclohexyl) carbonate], the pEC50 in series [2] was 8.77. This compound came in with a CC50 at 5 days in series [1] of 21.6 µM.
Take `CC1=NO[C@@]2(CC[C@H](C)N3C[C@H]2n2cc(C(=O)NCc4ccc(F)cc4F)c(=O)c(OCOC(=O)OC[C@@H]4CCCC[C@@H]4OP(=O)(O)O)c2C3=O)C1` [Compound 52, (((3′S,5S,7′R)-10′-((2,4-difluorobenzyl)carbamoyl)-3,3′-dimethyl-1′,11′-dioxo-1′,4′,5′,11′-tetrahydro-3′H,4H,7′H-spiro[isoxazole-5,6′-[2,7]methanopyrido[1,2-a][1,4]diazonin]-12′-yl)oxy)methyl (((1S,2S)-2-(phosphonooxy)cyclohexyl)methyl) carbonate]: the pEC50 in series [2] is 8.83. This compound also came in with a CC50 at 5 days in series [1] of 13 µM.
Take `CCCCCCCCCCCCCC(=O)OCc1ccccc1C(=O)Oc1c2n(cc(C(=O)NCc3ccc(F)cc3F)c1=O)[C@@H]1CN(C2=O)[C@@H](C)CC[C@]12CC(OC)=NO2` [Compound 91, (3′S,5S,7′R)-10′-((2,4-difluorobenzyl)carbamoyl)-3-methoxy-3′-methyl-1′,11′-dioxo-1′,4′,5′,11′-tetrahydro-3′H,4H,7′H-spiro[isoxazole-5,6′-[2,7]methanopyrido[1,2-a][1,4]diazonin]-12′-yl 2-((tetradecanoyloxy)methyl)benzoate]: the pEC50 in series [2] is 8.30. The CC50 at 5 days in series [1] is not below 50 µM.
Regarding `CC1=NO[C@@]2(CC[C@H](C)N3C[C@H]2n2cc(C(=O)NCc4ccc(F)cc4F)c(=O)c(OCOC(=O)N(C)c4ncccc4CN(CC(=O)N[C@@H](CC(=O)O)C(=O)O)C(=O)OCOP(=O)(O)O)c2C3=O)C1` [Compound 36, N-((2-((((((3′S,5S,7′R)-10′-((2,4-difluorobenzyl)carbamoyl)-3,3′-dimethyl-1′,11′-dioxo-1′,4′,5′,11′-tetrahydro-3′H,4H,7′H-spiro[isoxazole-5,6′-[2,7]methanopyrido[1,2-a][1,4]diazonin]-12′-yl)oxy)methoxy)carbonyl)(methyl)amino)pyridin-3-yl)methyl)-N-(((phosphonooxy)methoxy)carbonyl)glycyl-L-aspartic acid], in series [2], the pEC50 is 8.51. In addition, the CC50 at 5 days in series [1] came to 22 µM.
As for `CC1=NO[C@@]2(CC[C@H](C)N3C[C@H]2n2cc(C(=O)NCc4ccc(F)cc4F)c(=O)c(OCOC(=O)CC(C)(C)c4c(CC(=O)N[C@@H](CCC(=O)O)C(=O)O)cc(C)cc4OP(=O)(O)O)c2C3=O)C1` [Compound 42, (2-(2-(4-((((3′S,5S,7′R)-10′-((2,4-difluorobenzyl)carbamoyl)-3,3′-dimethyl-1′,11′-dioxo-1′,4′,5′,11′-tetrahydro-3′H,4H,7′H-spiro[isoxazole-5,6′-[2,7]methanopyrido[1,2-a][1,4]diazonin]-12′-yl)oxy)methoxy)-2-methyl-4-oxobutan-2-yl)-5-methyl-3-(phosphonooxy)phenyl)acetyl)-L-glutamic acid], the EC50 in series [2] was found to be 1.9 nM. This compound yielded a CC50 in series [1] of 15.7 µM.
The like results for `CC1=NO[C@@]2(CC[C@H](C)N3C[C@H]2n2cc(C(=O)NCc4ccc(F)cc4F)c(=O)c(OC(=O)N(C)c4ncccc4CN(CCC(F)(F)F)C(=O)OCOP(=O)(O)O)c2C3=O)C1` [Compound 82, (3′S,5S,7′R)-10′-((2,4-difluorobenzyl)carbamoyl)-3,3′-dimethyl-1′,11′-dioxo-1′,4′,5′,11′-tetrahydro-3′H,4H,7′H-spiro[isoxazole-5,6′-[2,7]methanopyrido[1,2-a][1,4]diazonin]-12′-yl methyl(3-(((((phosphonooxy)methoxy)carbonyl)(3,3,3-trifluoropropyl)amino)methyl)pyridin-2-yl)carbamate] were, in that order, 2.17 nM and 8.52 µM.
In the case of `COC1=NO[C@@]2(CC[C@H](C)N3C[C@H]2n2cc(C(=O)NCc4ccc(F)cc4F)c(=O)c(OCOC(=O)CC(C)(C)c4c(CC(=O)O)cc(C)cc4OP(=O)(O)O)c2C3=O)C1` [Compound 21, 2-(2-(4-((((3′S,5S,7′R)-10′-((2,4-difluorobenzyl)carbamoyl)-3-methoxy-3′-methyl-1′,11′-dioxo-1′,4′,5′,11′-tetrahydro-3′H,4H,7′H-spiro[isoxazole-5,6′-[2,7]methanopyrido[1,2-a][1,4]diazonin]-12′-yl)oxy)methoxy)-2-methyl-4-oxobutan-2-yl)-5-methyl-3-(phosphonooxy)phenyl)acetic acid], the EC50 in series [2] was 2.54 nM. Moreover, the CC50 in series [1] turned out to be 12.6 µM.
On the same counts, the results for `CC1=NO[C@@]2(CC[C@H](C)N3C[C@H]2n2cc(C(=O)NCc4ccc(F)cc4F)c(=O)c(OCOC(=O)CC(C)(C)c4c(CC(=O)NCP(=O)(O)O)cc(C)cc4OP(=O)(O)O)c2C3=O)C1` [Compound 81, ((2-(2-(4-((((3′S,5S,7′R)-10′-((2,4-difluorobenzyl)carbamoyl)-3,3′-dimethyl-1′,11′-dioxo-1′,4′,5′,11′-tetrahydro-3′H,4H,7′H-spiro[isoxazole-5,6′-[2,7]methanopyrido[1,2-al][1,4]diazonin]-12′-yl)oxy)methoxy)-2-methyl-4-oxobutan-2-yl)-5-methyl-3-(phosphonooxy)phenyl)acetamido)methyl)phosphonic acid] are 2.09 nM and 14.4 µM.
Turning to `CCCCCCCCCCCCCC(=O)Oc1ccc(CC(=O)Oc2c3n(cc(C(=O)NCc4ccc(F)cc4F)c2=O)[C@@H]2CN(C3=O)[C@@H](C)CC[C@]23CC(OC)=NO3)cc1` [Compound 95, [4-[2-[(1R,10S,13S)-4-[(2,4-difluorophenyl)methylcarbamoyl]-3′-methoxy-10-methyl-5,8-dioxo-spiro[2,9-diazatricyclo[7.4.1.02,7]tetradeca-3,6-diene-13,5′-4H-isoxazole]-6-yl]oxy-2-oxo-ethyl]phenyl] tetradecanoate], in series [2], the pEC50 is 8.46. The compound also registered a CC50 at 5 days in series [1] not below 50 µM.
The like results for `COC1=NO[C@@]2(CC[C@H](C)N3C[C@H]2n2cc(C(=O)NCc4ccc(F)cc4F)c(=O)c(OCc4oc(=O)oc4C)c2C3=O)C1` [Compound 103, (3′S,5S,7′R)—N-(2,4-difluorobenzyl)-3-methoxy-3′-methyl-12′-((5-methyl-2-oxo-1,3-dioxol-4-yl)methoxy)-1′,11′-dioxo-1′,4′,5′,11′-tetrahydro-3′H,4H,7′H-spiro[isoxazole-5,6′-[2,7]methanopyrido[1,2-a][1,4]diazonine]-10′-carboxamide] were, in that order, 8.72 and 18.9 µM.
For `COC1=NO[C@@]2(CC[C@H](C)N3C[C@H]2n2cc(C(=O)NCc4ccc(F)cc4F)c(=O)c(OC(=O)Cc4ccc(OP(=O)(O)O)cc4)c2C3=O)C1` [Compound 29, (3′S,5S,7′R)-10′-((2,4-difluorobenzyl)carbamoyl)-3-methoxy-3′-methyl-1′,11′-dioxo-1′,4′,5′,11′-tetrahydro-3′H,4H,7′H-spiro[isoxazole-5,6′-[2,7]methanopyrido[1,2-a][1,4]diazonin]-12′-yl 2-(4-(phosphonooxy)phenyl)acetate], the EC50 in series [2] was determined as 2.01 nM. In addition, in series [1], the CC50 was found to be 27.8 µM.
As to `COCCN(Cc1cccnc1N(C)C(=O)Oc1c2n(cc(C(=O)NCc3ccc(F)cc3F)c1=O)[C@@H]1CN(C2=O)[C@@H](C)CC[C@]12CC(C)=NO2)C(=O)OCOP(=O)(O)O` [Compound 83, (3′S,5S,7′R)-10′-((2,4-difluorobenzyl)carbamoyl)-3,3′-dimethyl-1′,11′-dioxo-1′,4′,5′,11′-tetrahydro-3′H,4H,7′H-spiro[isoxazole-5,6′-[2,7]methanopyrido[1,2-a][1,4]diazonin]-12′-yl (3-(((2-methoxyethyl)(((phosphonooxy)methoxy)carbonyl)amino)methyl)pyridin-2-yl)(methyl)carbamate], the EC50 in series [2] is 1.36 nM. The CC50 in series [1] was 13.2 µM.
Turning to `COC1=NO[C@@]2(CC[C@H](C)N3C[C@H]2n2cc(C(=O)NCc4ccc(F)cc4F)c(=O)c(OCOP(=O)(O)OCc4ccccc4)c2C3=O)C1` [Compound 18, benzyl ((((3′S,5S,7′R)-10′-((2,4-difluorobenzyl)carbamoyl)-3-methoxy-3′-methyl-1′,11′-dioxo-1′,4′,5′,11′-tetrahydro-3′H,4H,7′H-spiro[isoxazole-5,6′-[2,7]methanopyrido[1,2-a][1,4]diazonin]-12′-yl)oxy)methyl) hydrogen phosphate], the pEC50 in series [2] is 7.91. For the same compound, the CC50 at 5 days in series [1] is not below 50 µM.
For `CCCCCCCCCCCCCC(=O)NCc1ccccc1C(=O)Oc1c2n(cc(C(=O)NCc3ccc(F)cc3F)c1=O)[C@@H]1CN(C2=O)[C@@H](C)CC[C@]12CC(OC)=NO2` [Compound 101, (3′S,5S,7′R)-10′-((2,4-difluorobenzyl)carbamoyl)-3-methoxy-3′-methyl-1′,11′-dioxo-1′,4′,5′,11′-tetrahydro-3′H,4H,7′H-spiro[isoxazole-5,6′-[2,7]methanopyrido[1,2-a][1,4]diazonin]-12′-yl 2-(tetradecanamidomethyl)benzoate], the CC50 at 5 days in series [1] is not below 50 µM.
